Assay [1] relates to HDACs (HeLa cell nuclear extracts). In words: HDAC enzymatic activity, Biomol Color de Lys system. Format: biochemical. Conditions: 1 hour, 25° C. The gist of the method:
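HeLa nuclear extract incubated with serially diluted compound and […] artificial substrate in 50 mM Tris/Cl pH 8.0, 137 mM NaCl, 2.7 mM KCl, 1 mM MgCl2. Run 1 h at 25 °C, stopped with developer. Fluorescence read (ex 350-380, em 440-460 nm); IC50 from sigmoidal dose-response fit.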

In a further assay the test system is SW620. Put plainly: Cell proliferation assay (CellTiter-Glo). Type of assay: cell-based. The note with it: Homo sapiens, SW-620; Colon; 72 hours, 0.5% fetal bovine serum; read-out: antiproliferative activity IC50, SW620. The gist of the method: (§1)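 Inhibition of growth was assessed as loss of ATP signal; cultures at 5,000–10,000 cells per well received serial compound doses for 72 h with 0.5% FBS, then were lysed for 30 min before luminescence reading.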

For another assay, the system named is SW403. In words: Cell proliferation assay (CellTiter-Glo). Format: cell-based. Conditions: Homo sapiens, SW-403; Colon; 72 hours, 0.5% fetal bovine serum; read-out: antiproliferative activity IC50, SW403. The gist of the method:
as §1
A general note: Cellular ATP, detected with luciferase, serves as a proxy for viable cell number.

In the next assay the test system is WiDr. In words: Cell proliferation assay (CellTiter-Glo). Type of assay: cell-based. The note with it: Homo sapiens, Colon, 72 hours, 0.5% fetal bovine serum, read-out: antiproliferative activity IC50, WiDr. The gist of the method:
as §1

In another assay the test system is SW1990. Put plainly: Cell proliferation assay (CellTiter-Glo). Type of assay: cell-based. The note with it: Homo sapiens, Pancreas, 72 hours, 0.5% fetal bovine serum, read-out: antiproliferative activity IC50, SW1990. The gist of the method: as §1
In another assay the test system is Calu6. Put plainly: Cell proliferation assay (CellTiter-Glo). Format: cell-based. Conditions: Homo sapiens, Calu-6; NSCLC; 72 hours, 0.5% fetal bovine serum; read-out: antiproliferative activity IC50, Calu6. The gist of the method:
as §1

A further assay concerns MiaPaca1. Put plainly: Cell proliferation assay (CellTiter-Glo). Type of assay: cell-based. Conditions: Pancreas; 72 hours, 0.5% fetal bovine serum; read-out: antiproliferative activity IC50, MiaPaca1. The gist of the method:
as §1

In the next assay the test system is CFPAC-1. In words: Cell proliferation assay (CellTiter-Glo). Conditions: Homo sapiens, Pancreas, 72 hours, 0.5% fetal bovine serum, read-out: antiproliferative activity IC50, CFPAC-1. Format: cell-based. The gist of the method:
as §1

The test system of the next assay is A549. Put plainly: Cell proliferation assay (CellTiter-Glo). The note with it: Homo sapiens, NSCLC, 72 hours, 0.5% fetal bovine serum, read-out: antiproliferative activity IC50, A549. Format: cell-based. The gist of the method: as §1
The next assay concerns H460. Put plainly: Cell proliferation assay (CellTiter-Glo). Type of assay: cell-based. Conditions: Homo sapiens, NCI-H460; NSCLC; 72 hours, 0.5% fetal bovine serum; read-out: antiproliferative activity IC50, H460. The gist of the method:
as §1

For the next assay, the system named is PANC-1. In words: Cell proliferation assay (CellTiter-Glo). Format: cell-based. The note with it: Homo sapiens, Pancreas, 72 hours, 0.5% fetal bovine serum, read-out: antiproliferative activity IC50, PANC-1. The gist of the method: as §1
The test system of the next assay is H358. Put plainly: Cell proliferation assay (CellTiter-Glo). Type of assay: cell-based. Conditions: Homo sapiens, NCI-H358; NSCLC; 72 hours, 0.5% fetal bovine serum; read-out: antiproliferative activity IC50, H358. The gist of the method:
as §1

The next assay deals with HCT116. Put plainly: Cell proliferation assay (CellTiter-Glo). Format: cell-based. Conditions: Homo sapiens, HCT-116; Colon; 72 hours, 0.5% fetal bovine serum; read-out: antiproliferative activity IC50, HCT116. The gist of the method:
as §1

For another assay, the system named is SWI-116. In words: Cell proliferation assay (CellTiter-Glo). Conditions: Colon; 72 hours, 0.5% fetal bovine serum; read-out: antiproliferative activity IC50, SWI-116. Type of assay: cell-based. The gist of the method:
as §1

The subject of another assay is CaPan2. In words: Cell proliferation assay (CellTiter-Glo). The note with it: Homo sapiens, Capan-2; Pancreas; 72 hours, 0.5% fetal bovine serum; read-out: antiproliferative activity IC50, CaPan2. Format: cell-based. The gist of the method:
as §1

The next assay has as its system T-84. In words: Cell proliferation assay (CellTiter-Glo). Format: cell-based. Conditions: Homo sapiens, T84; Colon; 72 hours, 0.5% fetal bovine serum; read-out: antiproliferative activity IC50, T-84. The gist of the method:
as §1

The next assay deals with OPM-2. In words: Cell proliferation assay (CellTiter-Glo). Format: cell-based. The note with it: Homo sapiens, Multiple Myeloma, 72 hours, 0.5% fetal bovine serum, read-out: antiproliferative activity IC50, OPM-2. The gist of the method: as §1
For another assay, the system named is H2122. In words: Cell proliferation assay (CellTiter-Glo). Type of assay: cell-based. The note with it: Homo sapiens, NCI-H2122; NSCLC; 72 hours, 0.5% fetal bovine serum; read-out: antiproliferative activity IC50, H2122. The gist of the method: as §1
The subject of another assay is H292. In words: Cell proliferation assay (CellTiter-Glo). The note with it: Homo sapiens, NCI-H292; NSCLC; 72 hours, 0.5% fetal bovine serum; read-out: antiproliferative activity IC50, H292. Type of assay: cell-based. The gist of the method: as §1
The target of assay [2] is T1, mTor serine/threonine protein kinase (Homo sapiens, UniProt P42345).
T1 construct: FLAG; made in house; host or cells: Baculovirus expression system in Sf21 cells
Put plainly: mTor kinase radioisotope assay. The note with it: 70 uM ATP, 40 minutes; read-out: m-TOR IC50. Type of assay: biochemical. The gist of the method: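 FLAG-tagged full-length recombinant human mTor from baculovirus/Sf21, incubated with p70S6K C-terminal fragment (2 mg/ml) and 70 uM ATP plus 33P-ATP tracer in 50 mM HEPES pH 7.5, 3 mM MnCl2, 40 min at room temperature. Phosphoric acid stop, filtermat capture, scintillation counting; IC50 from sigmoidal dose-response fit.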

A further assay concerns PC-3. Put plainly: Cell proliferation assay (CellTiter-Glo). Type of assay: cell-based. The note with it: Homo sapiens, Prostate, 72 hours, 0.5% fetal bovine serum, read-out: antiproliferative activity IC50, PC-3. The gist of the method:
as §1

The test system of the next assay is OVCAR-5. In words: Cell proliferation assay (CellTiter-Glo). Format: cell-based. The note with it: Homo sapiens, Ovarian, 72 hours, 0.5% fetal bovine serum, read-out: antiproliferative activity IC50, OVCAR-5. The gist of the method: as §1
The subject of a further assay is LN-Cap. Put plainly: Cell proliferation assay (CellTiter-Glo). Format: cell-based. The note with it: Homo sapiens, LNCaP; Prostate; 72 hours, 0.5% fetal bovine serum; read-out: antiproliferative activity IC50, LN-Cap. The gist of the method:
as §1

The next assay has as its system CaPan1. Put plainly: Cell proliferation assay (CellTiter-Glo). Type of assay: cell-based. The note with it: Homo sapiens, CAPAN-1; Pancreas; 72 hours, 0.5% fetal bovine serum; read-out: antiproliferative activity IC50, CaPan1. The gist of the method: as §1
The test system of the next assay is MDA-MB-231. Put plainly: Cell proliferation assay (CellTiter-Glo). The note with it: Homo sapiens, Breast, 72 hours, 0.5% fetal bovine serum, read-out: antiproliferative activity IC50, MDA-MB-231. Format: cell-based. The gist of the method: as §1
A further assay concerns glioblastoma xenografts. The note with it: oral dosage; cited from earlier work.

The source of these data is patent US20130102595A1 (Curis, Inc., priority 2011, published 2013).

Broadly, the IC50 is the concentration that gives 50% inhibition.

Consider `COc1ccc(-c2nc(N3CCOCC3)c3sc(CN(C)c4ncc(C(=O)NO)cn4)cc3n2)cn1` [Compound 236, N-Hydroxy-2-(((2-(6-methoxypyridin-3-yl)-4-morpholinothieno[3,2-d]pyrimidin-6-yl)methyl)(methyl)amino)pyrimidine-5-carboxamide], for which the 50% inhibitory concentration (IC50) is below 100 nM in assay [1]; below 10 nM in the assay on SW620; below 10 nM in the assay on SW403; 10 to 100 nM in the assay on WiDr; below 10 nM in the assay on SW1990; 10 to 100 nM with Calu6. For the same molecule, the concentration for half-maximal inhibition (IC50) with MiaPaca1 is 10 to 100 nM; in the assay on CFPAC-1 it was 10 to 100 nM; with A549 it was 10 to 100 nM; in the assay with H460 it was 10 to 100 nM; with PANC-1 it was 10 to 100 nM; with H358, below 10 nM. The IC50 was below 10 nM in the assay with HCT116; below 10 nM in the assay with SWI-116; 10 to 100 nM in the assay on CaPan2; 10 to 100 nM with T-84; below 10 nM in the assay with OPM-2; below 10 nM with H2122. Further, the IC50 was below 10 nM in the assay on H292 and 1000 to 10000 nM in assay [2].
With `CS(=O)(=O)N1CCN(Cc2cc3nc(-c4cccc5[nH]ncc45)nc(N4CCOCC4)c3s2)CC1` [GDC-0941, reference compound], the IC50 in the assay on SW620 was in the range of 100 to 1000 nM; with SW403, 1000 to 10000 nM; with WiDr, 100 to 1000 nM; with SW1990, 1000 to 10000 nM; with Calu6, 1000 to 10000 nM; with MiaPaca1, 1000 to 10000 nM. Further, the IC50 fell in the range of 1000 to 10000 nM in the assay on CFPAC-1; 1000 to 10000 nM with PC-3; 100 to 1000 nM in the assay with A549; 100 to 1000 nM in the assay with H460; 1000 to 10000 nM with PANC-1; 1000 to 10000 nM in the assay with H358. The IC50 is 100 to 1000 nM in the assay on HCT116; 100 to 1000 nM with OVCAR-5; 100 to 1000 nM in the assay on SWI-116; 100 to 1000 nM with LN-Cap; 1000 to 10000 nM in the assay with CaPan1; 1000 to 10000 nM in the assay with CaPan2. Also, the half-maximal inhibitory concentration (IC50) in the assay with T-84 is 1000 to 10000 nM; with OPM-2 it was 100 to 1000 nM; in the assay on H2122, 1000 to 10000 nM; with MDA-MB-231 it was above 10000 nM; in the assay on H292, 1000 to 10000 nM. Also, the “effect in glioblastoma xenografts in vivo” value with glioblastoma xenografts is on record as “tumor suppression”.
